Data set [1] concerns Human immunodeficiency virus 1. In words: Antiviral activity against HIV-1 IIIB infected in TZM-bl cells. Format: functional, organism-based. The note with it: Human immunodeficiency virus 1, IIIB.
Data set [2] in a line: Cytotoxicity against human TZM-bl cells. The data set is classed as toxicity, cell-based.
Data set [3] in a line: Therapeutic index, ratio of CC50 for human TZM-bl cells to EC50 for HIV IIIB infected in TZM-bl cells. The settings on record: read-out: Ratio CC50/EC50. Format: toxicity, cell-based.
The target of data set [4] is T1, Protein cereblon/Virion infectivity factor (Human immunodeficiency virus type 1 group M subtype B (isolate NY5)(HIV-1)) (UniProt Q96SW2+P12504). Put plainly: PROTAC activity at CRBN (unknown origin)/Vif in HIV-1 TREX-hvif-15 cells assessed as reduction in Vif protein level at 50 uM by Western blotting analysis. The data set is classed as cell-based. The note with it: TREX-hvif-15 cell.

Data set [5] has as its target T1, Protein cereblon/Virion infectivity factor (Human immunodeficiency virus type 1 group M subtype B (isolate NY5)(HIV-1)). Put plainly: PROTAC activity at CRBN (unknown origin)/Vif in HIV-1 TREX-hvif-15 cells assessed as reduction in Vif protein level incubated for 24 hrs by Western blotting analysis. Format: cell-based. The note with it: TREX-hvif-15 cell, dose 3.125-50 µM. For orientation: In western blotting, separated proteins are transferred to a membrane and probed.

Data set [6] shares this target. In words: PROTAC activity at CRBN (unknown origin)/Vif in HIV-1 TREX-hvif-15 cells assessed as reduction in Vif protein level at 100 uM incubated for 24 hrs by Western blotting analysis. The data set is classed as cell-based. Set-up: scale not given: the % may be the effect or the level left. The settings on record: TREX-hvif-15 cell.
Data set [7] has the same target. In words: PROTAC activity at CRBN (unknown origin)/Vif in HIV-1 TREX-hvif-15 cells assessed as reduction in Vif protein level at 50 uM pretreated with MG132 followed by compound addition and measured after 24 hrs by Western blotting analysis. The data set is classed as cell-based. The note with it: TREX-hvif-15 cell.
A short description of data set [8]: Cytotoxicity against human PBMCs. Format: toxicity, cell-based, PBMC.
Data set [9] has as its system Human immunodeficiency virus 1. Put plainly: Antiviral activity against HIV-1 KIZ002 infected in PHA-P stimulated PBMCs. Format: functional, organism-based. The note with it: Human immunodeficiency virus 1, KIZ002, PBMC.
The test system of data set [10] is Human immunodeficiency virus 1. In words: Antiviral activity against HIV-1 WAN infected in PHA-P stimulated PBMCs. The data set is classed as functional, organism-based. The note with it: Human immunodeficiency virus 1, WAN, PBMC.
Data set [11] concerns Human immunodeficiency virus 1. In words: Antiviral activity against HIV1 at 50 uM measured after 8 hrs. The data set is classed as functional, organism-based.
Data set [12] relates to Human immunodeficiency virus 1. Put plainly: Antiviral activity against HIV-1 IIIB infected in C8166 cells. The note with it: Human immunodeficiency virus 1, IIIB. Format: functional, organism-based.
In data set [13] the test system is Human immunodeficiency virus 1. In words: Antiviral activity against HIV-1 G140S/Q148H infected in C8166 cells. The data set is classed as functional, organism-based. The settings on record: Human immunodeficiency virus 1, G140S/Q148H.
The subject of data set [14] is Human immunodeficiency virus 1. Put plainly: Antiviral activity against HIV-1 2802 infected in C8166 cells. The data set is classed as functional, organism-based. The settings on record: Human immunodeficiency virus 1, 2802, C8166.
The test system of data set [15] is Human immunodeficiency virus 1. Put plainly: Antiviral activity against HIV-1 9498 infected in C8166 cells. Format: functional, organism-based. The note with it: Human immunodeficiency virus 1, 9498, C8166.
The subject of data set [16] is Human immunodeficiency virus 1. In words: Antiviral activity against HIV-1 4755-5 infected in C8166 cells. Format: functional, organism-based. The note with it: Human immunodeficiency virus 1, 4755-5, C8166.
Data set [17] deals with Human immunodeficiency virus 1. Put plainly: Antiviral activity against HIV-1 A17 infected in C8166 cells. Format: functional, organism-based. The settings on record: Human immunodeficiency virus 1, A17, C8166.
For data set [18], the system named is Human immunodeficiency virus 1. Put plainly: Antiviral activity against HIV1 at 1 uM measured after 2 to 4 hrs. Format: functional, organism-based. The settings on record: time 2-4 hrs.
Data set [19] concerns Human immunodeficiency virus 1. Put plainly: Antiviral activity against HIV1 at 1 uM measured after 8 hrs. The data set is classed as functional, organism-based.

SMILES strings stand for the structures. Calls of active or inactive are those of the source. No cut-off for these calls is given here. Where only a bound is given, the exact number is not on record here.

T1 sequence (P12504 whole entry, looked up): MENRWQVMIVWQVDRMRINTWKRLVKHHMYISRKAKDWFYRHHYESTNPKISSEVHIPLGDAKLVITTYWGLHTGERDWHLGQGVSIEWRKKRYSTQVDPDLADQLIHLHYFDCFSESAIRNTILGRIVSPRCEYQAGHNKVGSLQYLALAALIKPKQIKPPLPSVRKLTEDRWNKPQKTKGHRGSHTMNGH
T1 sequence (Q96SW2 whole entry, looked up): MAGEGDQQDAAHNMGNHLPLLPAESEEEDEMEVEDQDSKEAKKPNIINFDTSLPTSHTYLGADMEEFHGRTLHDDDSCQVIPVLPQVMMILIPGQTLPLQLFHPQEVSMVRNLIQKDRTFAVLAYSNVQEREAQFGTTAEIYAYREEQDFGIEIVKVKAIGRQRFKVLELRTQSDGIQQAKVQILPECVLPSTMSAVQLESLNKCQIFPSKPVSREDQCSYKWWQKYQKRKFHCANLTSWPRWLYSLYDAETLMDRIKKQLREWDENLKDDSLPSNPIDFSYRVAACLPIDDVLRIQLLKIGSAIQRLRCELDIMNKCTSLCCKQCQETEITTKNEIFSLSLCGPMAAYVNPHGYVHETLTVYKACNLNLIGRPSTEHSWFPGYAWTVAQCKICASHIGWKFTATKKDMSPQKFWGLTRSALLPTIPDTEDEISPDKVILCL

In the case of `COc1ccc(OCC(=O)NCCOCCOCCNc2cccc3c2C(=O)N(C2CCC(=O)NC2=O)C3=O)cc1NC(=O)c1c(N)cccc1Sc1ccc([N+](=O)[O-])cc1` (stereo not given), the EC50 in data set [1] came out at 33.4 µM; in data set [9] it was 10.5 µM; in data set [10], 8.76 µM; in data set [12] it was 10.5 µM; in data set [13], 8.43 µM; in [14] it was 7.3 µM. For the same compound, the EC50 in [15] was 9.65 µM; in data set [16], 13.6 µM; in [17] it was above 100 µM. For the same compound, the CC50 in data set [2] and in data set [8] was above 200 µM throughout. Moreover, in data set [3], the selectivity ratio is above 6. Also, the outcome in [4] and in [11] was Active. Moreover, the values for the Activity result in data set [5] and in data set [6] were “Dose-Dependent Effect” and 100%, respectively. For the same compound, the outcome in [7] was inactive.
As for `Nc1ccn([C@@H]2CS[C@H](CO)O2)c(=O)n1` [LAMIVUDINE], the EC50 in data set [9] came to 0.09 µM; in [10], 0.15 µM; in data set [12], 0.16 µM; in data set [13] it was 5.61 µM; in data set [16], 76.9 µM; in [17] it was 0.28 µM. The outcome in [18] was Active. For the same compound, the result in data set [19] was inactive.

For orientation: EC50 means the concentration that produces a half-maximal response. Broadly, the CC50 is the concentration that lowers cell viability or growth by half.

(Values after ChEMBL document CHEMBL6127009, “Discovery of L15 as a novel Vif PROTAC degrader with antiviral activity against HIV-1” (Bioorg Med Chem Lett, 2024).)
